From patent US7067486B2, “Acetylcholinesterase-derived peptides and uses thereof” (priority 1999, dated 2006)
Marks after values point to notes of the source that are not given here.

Columns and labels:
Assay type in all cases: cell-based, human
CD34^+ cells [1] = experiment: Viable cell expansion in CD34+ liquid cultures (trypan blue exclusion); conditions: day 14; seeded at 50,000 cells/well; ARP 2 nM, cortisol 1.2 μM, ASP 2 nM, SCF 50 ng/ml, AS1 20 pM, PBAN 2 nM
Excerpt: Cell Source: UCB was collected, following informed consent of the parents and with the approval of the Sourasky Medical Center Ethics Committee, as previously described [Grisaru et al. (1999a) Am. J. Obstet. Gynecol, 180, 1240–1243]. Following 1:1 (v/v) dilution in Iscove's modified Dulbecco medium (IMDM, Beit Haemek, Israel), mononuclear cells were separated using 3% gelatin (Difco, Detroit, Mich.) and Ficoll-Hypaque gradients (<1.077 g/ml; Pharmacia, Uppsala, Sweden) [Pick et al. (1998) Br. J. Haematol. 103, 639–50]. CD34^+ cells were enriched using CD34 immunoglobulin-coated magnetic beads (CD34 progenitor cell selection system, Dynal, Norway).CD34^+ cells analysis was performed by flow cytometry (Becton Dickinson Immunocytochemistry System Inc., San Jose, Calif.), using CD34-PE (Becton Dickinson Immunocytometry System, Inc.) and CD45-FITC (Dako, Glostrup, Denmark) monoclonal antibodies. […] Liquid Cultures: UCB CD34^+ cells were set for liquid cultures at a concentration of 10^5/mL in IMDM, containing 10% autologous plasma, 2 mM L-glutamine (Sigma Chemical Co., St Louis, Mo.), penicillin ([…]), streptomycin ([…]), amphotericin B (2×10^−5 M) (Sigma Chemical Co.), and heparin (20 IU/mL, Gibco, Grand Island, N.Y.), all in a fully humidified atmosphere at 37° C. and 5% CO2. The following elements were added where noted: • 1. Hematopoietic growth factors: Interleukin 3 (IL3, 5 ng/mL, Immunex, Seattle, Wash.), interleukin 6 (IL6, 50 ng/mL, R&D Systems, Minneapolis, Minn.), TPO (1 ng/mL, R&D Systems), stem cell factor (SCF, 10 ng/mL, R&D Systems), FLT-3 ligand (FLT3, 50 ng/mL, R&D Systems), granulocyte-macrophage colony stimulating factor (GM-CSF, 50 ng/mL, Biogenesis Ltd, Bournemouth, UK) and combinations of the above, for 24 hr to 28 days (supplemented every 4 days). • 2. Endothlial Growth factors: Epidermal growth factor (EGF 10 ng/ml, Sigma Chemical Co.), basic Fibroblast growth factor (bFGF 20 ng/ml, Sigma Chemical Co.) incubated in a serum free medium (SFM) for 48 hr. • 3. […] AChE C-terminal peptides: The following C-terminal peptides of the AChE synaptic (ASP, also denoted SEQ ID: No. 2) and readthrough (ARP, also denoted SEQ ID: No. 1) isoforms were synthesized using a 433A peptide synthesizer (PE Applied Biosystems, Inc., Norwalk, Conn.). • ASP: 1-[…]-40, also denoted as SEQ ID: No. 2. • ARP: 1-[…]-26, also denoted as SEQ ID: No. 1. […]

CD34^+ cells [2] = experiment: Cell phenotyping of CD34+ liquid cultures by flow cytometry (CD34, CD33, CD15, CD41); conditions: day 14; seeded at 50,000 cells/well; ARP 2 nM, cortisol 1.2 μM, ASP 2 nM, SCF 50 ng/ml, AS1 20 pM, PBAN 2 nM
Excerpt: Cell Source: UCB was collected, following informed consent of the parents and with the approval of the Sourasky Medical Center Ethics Committee, as previously described [Grisaru et al. (1999a) Am. J. Obstet. Gynecol, 180, 1240–1243]. Following 1:1 (v/v) dilution in Iscove's modified Dulbecco medium (IMDM, Beit Haemek, Israel), mononuclear cells were separated using 3% gelatin (Difco, Detroit, Mich.) and Ficoll-Hypaque gradients (<1.077 g/ml; Pharmacia, Uppsala, Sweden) [Pick et al. (1998) Br. J. Haematol. 103, 639–50]. CD34^+ cells were enriched using CD34 immunoglobulin-coated magnetic beads (CD34 progenitor cell selection system, Dynal, Norway).CD34^+ cells analysis was performed by flow cytometry (Becton Dickinson Immunocytochemistry System Inc., San Jose, Calif.), using CD34-PE (Becton Dickinson Immunocytometry System, Inc.) and CD45-FITC (Dako, Glostrup, Denmark) monoclonal antibodies. […] Liquid Cultures: UCB CD34^+ cells were set for liquid cultures at a concentration of 10^5/mL in IMDM, containing 10% autologous plasma, 2 mM L-glutamine (Sigma Chemical Co., St Louis, Mo.), penicillin ([…]), streptomycin ([…]), amphotericin B (2×10^−5 M) (Sigma Chemical Co.), and heparin (20 IU/mL, Gibco, Grand Island, N.Y.), all in a fully humidified atmosphere at 37° C. and 5% CO2. The following elements were added where noted: • 1. […] Endothlial Growth factors: Epidermal growth factor (EGF 10 ng/ml, Sigma Chemical Co.), basic Fibroblast growth factor (bFGF 20 ng/ml, Sigma Chemical Co.) incubated in a serum free medium (SFM) for 48 hr. • 3. Stress mimicking conditions: Hydrocortisone sodium succinate (Abic Ltd., Netanya, Israel) at concentrations equivalent to normal, intermediate and stress serum cortisol levels (0.1, 0.6 and 1.2 μM, respectively (De Vroede et al., Arch. Des. […] Antisense oligonucleotides: 3′-terminal 2′-O-Methylated 15- and 20-mer oligodeoxynucleotides in the antisense (AS) orientation, targeted against the common sequence domain in human AChEmRNA and BuChE mRNA, as control, […], as detailed elsewhere [Grisaru et al. (1999b) Mol. Cell. Biol. 19, 788–95]. • 5. AChE C-terminal peptides: The following C-terminal peptides of the AChE synaptic (ASP, also denoted SEQ ID: No. 2) and readthrough (ARP, also denoted SEQ ID: No. 1) isoforms were synthesized using a 433A peptide synthesizer (PE Applied Biosystems, Inc., Norwalk, Conn.). • ASP: 1-[…]-40, also denoted as SEQ ID: No. 2. • ARP: 1-[…]-26, also denoted as SEQ ID: No. 1.
(§1) Culture Analyses: Twenty-four hr liquid cultures served for cytochemical staining, in situ hybridization, and cell proliferation assay by 5-bromo-2′-deoxy-Uridine (BrdU) incorporation [Grisaru et al. (1999b) id ibid.]. Twenty-eight day liquid cultures were sampled every 6–8 days for viable cell counting (using trypan blue dye exclusion), cell phenotyping (CD34^+, CD33^+ and CD41^+ quantification using flow cytometry, with CD34-PE, CD33-FITC (Immunotech/Coulter, Hialeah, Fla.), CD41-FITC (Immunoquality Products, Groningen, Netherlands) and CD45-FITC monoclonal antibodies), and growth of progenitor colony (granulocyte-macrophage and megakaryocytic), using previously described techniques (Pick et al. (1998) id ibid.). […] 11, 1049–57]. Nuclear staining w with 4′,6-diamidino-2- phenylindole [DAPI, see e.g., Peterson et al. (1999) Genetics 152, 427–439].

[3] = tested on: AChEmRNA transcripts (S, E, R); experiment: In situ hybridization of AChEmRNA transcripts in cultured CD34+ cells, confocal quantification; conditions: 24 hr
Procedure: In Situ Hybridization: In situ hybridization procedures, were performed on cultured cells and human fetal tissues, as detailed elsewhere [Grisaru et al. (1999b) id ibid; Kaufer et al. (1998) id ibid.]. Cultured cells were centrifuged at 300× g and fixed, using 4% paraformaldehyde, to collagen-coated cover slips placed on the bottom of the culture well. […] 5′-Biotinylated, 2′-O-methylated AChEcRNA probes complementary to 3′-alternative human ACHE exons were employed. Detection and quantification of the various AChEmRNA transcripts in fetal tissues were performed as previously described [Grisaru et al. (1999b) id ibid.]. Confocal microscopy scans of the culture-derived cells were obtained using a MRC-1024 Bio-Rad confocal microscope (Hemel Hempsted Herts., UK). A projection was built from each cell image and specific criteria were set for size and intensity of the Fagt Red fluorescence. […]
The assumption that hematopoietic ACHE gene expression is modulated under stress was tested in CD34^+ cells cultured for 24 hr with increasing doses of hydrocortisone. Treated cells were subjected to cytochemical staining for AChE activity as well as to high resolution in situ hybridization followed by confocal microscopic quantification of labeling density. […] Because each cRNA probe has its own characteristic hybridization affinity, each transcript was quantified separately. […]

AChE = experiment: Cytochemical staining of AChE catalytic activity in CD34+ cells; conditions: 24 hr
Excerpt: as §1

[4] = 1.2 μM hydrocortisone (stress-associated level)

Compound: C[C@]12CCC(=O)C=C1CC[C@@H]1[C@@H]2[C@@H](O)C[C@@]2(C)[C@H]1CC[C@]2(O)C(=O)COC(=O)CCC(=O)[O-].[Na+] [hydrocortisone, Hydrocortisone sodium succinate, reference compound]
- Total viable cells (CD34^+ cells [1]): 80.0 cells per culture × 10^−3
- CD33^+ (early myeloids) (CD34^+ cells [2]): 45.0 cells per culture × 10^−3
- CD33^+ and CD15^+ (total myeloids) (CD34^+ cells [2]): 73.0 cells per culture × 10^−3
- CD34^+ (early progenitors) (CD34^+ cells [2]): 13.0 cells per culture × 10^−3
- CD41^+ (megakaryocytes) (CD34^+ cells [2]): 10.1^b cells per culture × 10^−3
- selective increase in "readthrough" AChE-R mRNA transcript ([3]; 0.60 μM hydrocortisone, above level at 0.10 μM, CD34+ cells): 40%
- labeling of all 3 AChEmRNA transcripts [3, 4]: enhanced
- enzyme activity of CD34+ cells (AChE; 0.60 μM hydrocortisone): no change
- catalytic activity of the stem cell-associated enzyme (AChE; [4]): intensified
